Laboratory results as given in the NIST ThermoML archive (doi:10.1016/j.fluid.2007.07.066).
Numbers after ± are expanded uncertainties.

Test: mn = molality of the nth substance listed, in mol/kg
Details: 101 kPa, Liquid; for speed of sound: Sing-around technique in a fixed-path interferometer; for molar conductivity: dip type immersion conductance cell

O=P([O-])([O-])O.[Na+].[Na+] [disodium hydrogen phosphate] + O
Details	mass density [kg/m3]	molar conductivity [S·m2/mol]	speed of sound [m/s]
283.15 K, m1 = 0.007	1000.71 ± 0.21	–	1449.3 ± 0.8
283.15 K, m1 = 0.0104	1001.19 ± 0.21	–	1450 ± 0.8
283.15 K, m1 = 0.0141	1001.72 ± 0.21	–	1450.8 ± 0.81
283.15 K, m1 = 0.032	1004.23 ± 0.21	–	1454.2 ± 0.81
283.15 K, m1 = 0.0386	1005.14 ± 0.21	–	1455.5 ± 0.81
283.15 K, m1 = 0.0411	1005.5 ± 0.21	–	1456 ± 0.81
283.15 K, m1 = 0.0496	1006.7 ± 0.21	–	1457.7 ± 0.81
283.15 K, m1 = 0.0632	1008.57 ± 0.21	–	1460.3 ± 0.81
283.15 K, m1 = 0.0737	1010.03 ± 0.22	–	1462.3 ± 0.81
283.15 K, m1 = 0.1066	1014.53 ± 0.22	–	1468.4 ± 0.81
283.15 K, m1 = 0.181	1024.58 ± 0.23	–	1481.8 ± 0.82
283.15 K, m1 = 0.2454	1033.1 ± 0.24	–	1493.2 ± 0.82
283.15 K, m1 = 0.2498	1033.68 ± 0.24	–	1493.8 ± 0.82
283.15 K, m1 = 0.2939	1039.48 ± 0.25	–	1501.6 ± 0.82
283.15 K, m1 = 0.3192	1042.77 ± 0.25	–	1506 ± 0.83
283.15 K, m1 = 0.3723	1049.55 ± 0.26	–	1514.9 ± 0.83
283.15 K, m1 = 0.4483	1059.19 ± 0.28	–	1527.7 ± 0.84
283.15 K, m1 = 0.6185	1080.36 ± 0.31	–	1555.7 ± 0.84
283.15 K, m1 = 0.7841	1100.26 ± 0.34	–	1582.3 ± 0.85
288.15 K, m1 = 0.007	1000.1 ± 0.2	–	1467.6 ± 0.81
288.15 K, m1 = 0.0104	1000.57 ± 0.21	–	1468.3 ± 0.81
288.15 K, m1 = 0.0141	1001.09 ± 0.19	–	1469 ± 0.81
288.15 K, m1 = 0.032	1003.56 ± 0.21	–	1472.3 ± 0.81
288.15 K, m1 = 0.0386	1004.46 ± 0.21	–	1473.6 ± 0.81
288.15 K, m1 = 0.0411	1004.81 ± 0.21	–	1474.1 ± 0.81
288.15 K, m1 = 0.0496	1006 ± 0.21	–	1475.7 ± 0.81
288.15 K, m1 = 0.0632	1007.85 ± 0.21	–	1478.2 ± 0.81
288.15 K, m1 = 0.0737	1009.28 ± 0.21	–	1480.1 ± 0.82
288.15 K, m1 = 0.1066	1013.73 ± 0.22	–	1486 ± 0.82
288.15 K, m1 = 0.181	1023.64 ± 0.23	–	1499.1 ± 0.82
288.15 K, m1 = 0.2454	1032.07 ± 0.25	–	1510.1 ± 0.83
288.15 K, m1 = 0.2498	1032.64 ± 0.23	–	1510.8 ± 0.83
288.15 K, m1 = 0.2939	1038.38 ± 0.25	–	1518.3 ± 0.83
288.15 K, m1 = 0.3192	1041.64 ± 0.25	–	1522.6 ± 0.83
288.15 K, m1 = 0.3723	1048.34 ± 0.26	–	1531.2 ± 0.84
288.15 K, m1 = 0.4483	1057.89 ± 0.27	–	1543.6 ± 0.84
288.15 K, m1 = 0.6185	1078.87 ± 0.3	–	1570.8 ± 0.85
288.15 K, m1 = 0.7841	1098.62 ± 0.33	–	1596.7 ± 0.86
293.15 K, m1 = 0.007	999.185 ± 0.2	–	1483.8 ± 0.82
293.15 K, m1 = 0.0104	999.653 ± 0.2	–	1484.5 ± 0.82
293.15 K, m1 = 0.0141	1000.17 ± 0.19	–	1485.2 ± 0.82
293.15 K, m1 = 0.032	1002.61 ± 0.2	–	1488.4 ± 0.82
293.15 K, m1 = 0.0386	1003.49 ± 0.2	–	1489.6 ± 0.82
293.15 K, m1 = 0.0411	1003.85 ± 0.21	–	1490.1 ± 0.82
293.15 K, m1 = 0.0496	1005.01 ± 0.21	–	1491.7 ± 0.82
293.15 K, m1 = 0.0632	1006.84 ± 0.21	–	1494.1 ± 0.82
293.15 K, m1 = 0.0737	1008.26 ± 0.21	–	1495.9 ± 0.82
293.15 K, m1 = 0.1066	1012.65 ± 0.22	–	1501.7 ± 0.82
293.15 K, m1 = 0.181	1022.47 ± 0.23	–	1514.3 ± 0.83
293.15 K, m1 = 0.2454	1030.81 ± 0.25	–	1525 ± 0.83
293.15 K, m1 = 0.2498	1031.37 ± 0.23	–	1525.7 ± 0.83
293.15 K, m1 = 0.2939	1037.06 ± 0.25	–	1533 ± 0.84
293.15 K, m1 = 0.3192	1040.28 ± 0.25	–	1537.1 ± 0.84
293.15 K, m1 = 0.3723	1046.93 ± 0.26	–	1545.5 ± 0.84
293.15 K, m1 = 0.4483	1056.39 ± 0.27	–	1557.6 ± 0.85
293.15 K, m1 = 0.6185	1077.21 ± 0.3	–	1584 ± 0.85
293.15 K, m1 = 0.7841	1096.81 ± 0.33	–	1609.1 ± 0.86
298.15 K, m1 = 0.0049	–	0.01921 ± 0.00019	–
298.15 K, m1 = 0.007	998.012 ± 0.2	–	1498 ± 0.82
298.15 K, m1 = 0.0104	998.476 ± 0.21	0.01802 ± 0.00018	1498.7 ± 0.82
298.15 K, m1 = 0.0141	998.988 ± 0.19	–	1499.3 ± 0.82
298.15 K, m1 = 0.0154	–	0.01735 ± 0.00017	–
298.15 K, m1 = 0.0211	–	0.0167 ± 0.00017	–
298.15 K, m1 = 0.032	1001.4 ± 0.2	–	1502.5 ± 0.82
298.15 K, m1 = 0.0386	1002.28 ± 0.2	–	1503.7 ± 0.82
298.15 K, m1 = 0.0411	1002.63 ± 0.21	–	1504.1 ± 0.82
298.15 K, m1 = 0.0413	–	0.01534 ± 0.00015	–
298.15 K, m1 = 0.0496	1003.78 ± 0.21	–	1505.6 ± 0.82
298.15 K, m1 = 0.0632	1005.6 ± 0.21	–	1508 ± 0.83
298.15 K, m1 = 0.0712	–	0.014 ± 0.00014	–
298.15 K, m1 = 0.0737	1007 ± 0.21	–	1509.8 ± 0.83
298.15 K, m1 = 0.1066	1011.35 ± 0.21	0.01306 ± 0.00013	1515.3 ± 0.83
298.15 K, m1 = 0.1437	–	0.01234 ± 0.00012	–
298.15 K, m1 = 0.181	1021.07 ± 0.23	–	1527.7 ± 0.83
298.15 K, m1 = 0.1927	–	0.0116 ± 0.00012	–
298.15 K, m1 = 0.2454	1029.34 ± 0.24	–	1538 ± 0.84
298.15 K, m1 = 0.2475	–	0.011 ± 0.00011	–
298.15 K, m1 = 0.2498	1029.9 ± 0.23	–	1538.6 ± 0.84
298.15 K, m1 = 0.2939	1035.53 ± 0.24	–	1545.8 ± 0.84
298.15 K, m1 = 0.3192	1038.73 ± 0.25	–	1549.8 ± 0.84
298.15 K, m1 = 0.3697	–	0.00986 ± 9.9e-05	–
298.15 K, m1 = 0.3723	1045.32 ± 0.26	–	1558 ± 0.84
298.15 K, m1 = 0.4438	–	0.009224 ± 9.2e-05	–
298.15 K, m1 = 0.4483	1054.71 ± 0.27	–	1569.7 ± 0.85
298.15 K, m1 = 0.5295	–	0.008621 ± 8.6e-05	–
298.15 K, m1 = 0.6125	–	0.00816 ± 8.2e-05	–
298.15 K, m1 = 0.6185	1075.38 ± 0.3	–	1595.4 ± 0.86
298.15 K, m1 = 0.6768	–	0.00778 ± 7.8e-05	–
298.15 K, m1 = 0.7479	–	0.007445 ± 7.4e-05	–
298.15 K, m1 = 0.7841	1094.86 ± 0.33	–	1619.8 ± 0.86
298.15 K, m1 = 0.8346	–	0.00706 ± 7.1e-05	–
298.15 K, m1 = 0.9695	–	0.006536 ± 6.5e-05	–
303.15 K, m1 = 0.007	996.606 ± 0.21	–	1510.4 ± 0.83
303.15 K, m1 = 0.0104	997.065 ± 0.21	–	1511 ± 0.83
303.15 K, m1 = 0.0141	997.573 ± 0.21	–	1511.7 ± 0.83
303.15 K, m1 = 0.032	999.963 ± 0.2	–	1514.7 ± 0.83
303.15 K, m1 = 0.0386	1000.84 ± 0.2	–	1515.9 ± 0.83
303.15 K, m1 = 0.0411	1001.18 ± 0.2	–	1516.3 ± 0.83
303.15 K, m1 = 0.0496	1002.33 ± 0.2	–	1517.8 ± 0.83
303.15 K, m1 = 0.0632	1004.12 ± 0.2	–	1520.1 ± 0.83
303.15 K, m1 = 0.0737	1005.51 ± 0.21	–	1521.8 ± 0.83
303.15 K, m1 = 0.1066	1009.83 ± 0.21	–	1527.2 ± 0.83
303.15 K, m1 = 0.181	1019.47 ± 0.22	–	1539.2 ± 0.84
303.15 K, m1 = 0.2454	1027.67 ± 0.23	–	1549.2 ± 0.84
303.15 K, m1 = 0.2498	1028.22 ± 0.23	–	1549.9 ± 0.84
303.15 K, m1 = 0.2939	1033.82 ± 0.24	–	1556.8 ± 0.84
303.15 K, m1 = 0.3192	1036.99 ± 0.24	–	1560.7 ± 0.84
303.15 K, m1 = 0.3723	1043.54 ± 0.25	–	1568.7 ± 0.85
303.15 K, m1 = 0.4483	1052.87 ± 0.27	–	1580.1 ± 0.85
303.15 K, m1 = 0.6185	1073.41 ± 0.29	–	1605.1 ± 0.86
303.15 K, m1 = 0.7841	1092.78 ± 0.32	–	1628.8 ± 0.87
